Legend:
[1] = tested on: endoplasmic reticulum (ER) stress induced proteins; test: mRNA expression of ER stress induced proteins by qPCR; assay type: cell-based; conditions: sensitive cells, 1 μM SSI-4 for 48 hours, fold change to untreated cells
[2] = Cell proliferation / viability assay (CyQuant or Coulter count), SSI-4 dose response; assay type: cell-based; conditions: 72 h; responsive HCC, CCA, ccRCC and MM cell lines; dose response 0.01-10,000 nM, 3 day exposure
Method: (§1) Cells were seeded at 5,000 cells/well in clear-bottom 96-well plates in triplicate. Drug treatment was applied at 1:1000 in reduced serum conditions (3%). After 72 hours, cells were washed with PBS, and stored at −80° C. prior to analysis using CyQuant® Proliferation Analysis Kit (Invitrogen) per manufacturers' protocol for relative fluorescence units. Alternatively, cells were plated 2×10^5/ well in 12-well plates (Genesee Scientific) in triplicate prior to drug treatment. After 120-hour treatment, cell number was established using a Coulter Particle Counter (Beckman). Oleic acid-albumin (Sigma Aldrich) was added to media at 5 μM, and was applied adjuvant to drug treatment. Drug stocks were prepared in DMSO (Sigma) at 1000×. IC50 dosing per cell line was calculated as described elsewhere (von Roemeling et al., Oncotarget, 9:3-20 (2018)).
(§2) SCD1 expression was examined in cell lines. Cells were treated with 1 μM SSI-4 for 3 days and a viability assay was used to identify SSI-4 sensitive and insensitive cell lines. Certain cell lines were also treated with varied doses (0.01-10,000 nM) of SSI-4 for 3 days. Not all cells that express SCD1 are sensitive to a SCD1 inhibitor (FIG. 1 and FIG. 2).

[3] = tested on: hepatocellular carcinoma (HCC), cholangiocarcinoma (CCA), clear cell renal cell carcinoma (ccRCC) and melanoma (MM) cell lines; test: as above; assay type: cell-based; conditions: responsive cell lines; 1 μM SSI-4 + 500 ug/ml BSA-OA, three days
Method: as §1, §2

[4] = tested on: BIP, cleaved PARP, cleaved caspase 3, c-Myc, cyclin D1, survivin; test: Western blot analysis of ER stress, apoptosis and c-Myc signaling; assay type: cell-based
Method: HCC, RCC, CCA, and MM cell lines (2000 cells/well) were incubated with DMSO control (1:1000), 500 ug/ml bovine serum albumin-oleic acid (BSA-OA) and/or 1 μM SSI-4 for three days and determined for cell viability (FIG. 4A). Nonresponsive cell lines are closed triangle and responsive are open triangles. […] Specificity for blockade of SCD1 is shown by rescue with the enzyme end product, oleic acid (OA).
Western blot analysis: Cell protein extracts were prepared using RIPA lysis buffer containing 50 mmol/L Tris, 5 mmol/L EDTA, 150 mmol/L NaCl, 0.1% SDS, 0.5% deoxycholate, 1% NP40, protease inhibitor cocktail, and phosphatase inhibitor. Tissue protein extracts were prepared from frozen samples using 1% SDS in 50 mmol/L pH 8.0 Tris buffer containing protease inhibitor cocktail and phosphatase inhibitor with brief sonication on ice. Electrophoresis, transfer, blocking, and antibody preparations were performed. The following primary antibodies were included: SCD1, c-Myc, pSrc Y418, Src, b-actin, PARP, cleaved caspase 3, survivin, cyclin D1. Secondary species-specific horseradish peroxidase-labeled antibodies were applied, and Supersignal Chemiluminescent Kit was used to perform detection.
In FIG. 6, c-Myc protein expression correlates with SCD1 sensitive cell lines. SCD1 protein is expressed in most cancer cells (HCC and ccRCC) while c-Myc protein expression appears to be expressed in SSI-4 sensitive cells.

[5] = tested on: Unsaturated fatty acids (UFAs); test: Unsaturated fatty acids measured in media of cells; assay type: cell-based; conditions: SSI-4 sensitive cells, 1 μM SSI-4
[6] = tested on: PDX tumor models for RCC, HCC, melanoma and CCA; test: PDTX tumor models in Nod Scid gamma mice; assay type: in vivo, NSG mice; conditions: oral, 180 parts per million in chow=10 mg/kg daily; treatment from ~75 mm^3; models predicted responsive by IHC
Method: Animal models and drug testing: PDTX tumors (5×5×5-mm) were implanted into Nod Scid gamma mice with treatment (vehicle control or oral SSI-4) begun when tumors were approximately ˜75-100 mm^3. Tumor volume, food consumption and body weight were monitored twice weekly. Tumor tissue was collected and processes for IHC.
In FIG. 10, PDTX tumor models for HCC, ccRCC, CCA, and melanoma respond to SSI-4 or not correlate with predictions shown in FIG. 10. PDTX tumors were grown in the right flank of Nod Scid Gamma (NSG) mice with treatment beginning when tumors reach ˜75 mm^3 with the start of SSI-4 oral treatment. Tumor tissues were formalin fixed and paraffin block slides were stained for SCD1, c-Myc, LDHA, p-Src by standard IHC protocols for protein expression. PDTX models tested include RCC, HCC, melanoma, and CCA. * indicates statistical difference of SSI-4 from same day treatment control (P<0.05). Number in red predicts no response to SSI-4 (SCD1 inhibitor). […] Cells resistant to SSI-4 may have low or no cMyc and no or low LDHA with elevated p-Src. Cell with elevated cMyc and LDHA and low p-Src are responsive to SSI-4 or SCD1 inhibition.

[7] = tested on: c-Myc silenced SSI-4 responsive cells / c-Myc overexpressing nonresponsive cells; test: Cell viability after c-Myc silencing (shRNA) or c-Myc overexpression; assay type: cell-based
Method: c-Myc gene silencing (shRNA) and c-Myc over-expression: Lentivirus shRNA pLKO.1 constructs were used to make self-inactivating shRNA lentiviruses for human c-Myc and a nontarget random scrambled sequence control. Transfection reagents Lipofectamine 2000 and ViraPower were used to generate lentiviruses using HEK293FT viral progenitor cells. Cells were incubated with lentivirus plus […] polybrene for 24 hours before clonal selection with puromycin.
In FIG. 8, overexpression of c-Myc in nonresponsive SSI-4 cells convert cells to SSI-4 sensitive (growth inhibited) cells. c-Myc mRNA expression is ˜2-fold elevated in cells infected with a c-Myc expression plasmid (FIG. 8A).

[8] = tested on: SSI-4 sensitive HCC cells; test: Soft agar colony formation; assay type: cell-based; conditions: 1 micromolar SSI-4
Method: Soft agar cultures were prepared by diluting 2× growth medium 1:1 in 1.5% SeaplaqueGTG agarose (Lonza), with 500 cells/plate in 60-mm culture dishes (Genesee Scientific). Colonies were stained with Giemsa (LabChem Inc.) and counted after 3 weeks.
In FIG. 3A, cells representative of HCC (top row), RCC (middle row) and MM (bottom row) are shown. In FIG. 3B, sensitive HCC cells are treated with 1 micromolar SSI-4 showing inhibition of colony formation (i.e. growth). In FIG. 3C, colonies are quantitated comparing control to SSI-4 treated cells. […] Each treatment group was repeated in triplicate. Colony number is the mean+/−standard deviation (S.D.). Thus, soft agar assay can independently predict response to SCD1 inhibitor but requires fresh live tumor tissue and laboratories such as the Copland laboratory that can access tissues, process tissues and perform the assays.

CNC(=O)c1ccnc(NC(=O)N2CCC(Oc3ccccc3Cl)CC2)c1 [SSI-4, 2-{[4-(2-Chlorophenoxy)piperidine-1-carbonyl]amino}-N-methylpyridine-4-carboxamide]
mRNA expression for ER stress induced proteins [1]: became elevated | IC50 [2]: 1 to 40 nM | rescue of SSI-4 inhibition of cell proliferation by oleic acid (BSA-OA) [3]: complete rescue | c-Myc and c-Myc regulated genes (cyclin D1 and survivin) protein expression ([4]; 1 μM SSI-4, restored by oleic acid BSA): down-regulated | ER stress (BIP protein, Western) ([4]; HCC cell lines): upregulation of BIP protein | apoptosis (cleaved PARP and cleaved caspase 3, Western) ([4]; HCC cell lines): Apoptotic cell death is induced | cMyc protein (Western) ([4]; HCC cell lines, rescue by OA): down-regulates cMyc protein | unsaturated fatty acids (UFAs) [5]: suppressed UFAs to levels equal to non-responsive cells | tumor response (tumor volume) [6]: respond | sensitivity of cells silenced for c-Myc to SSI-4 treatment ([7]; SSI-4 responsive cells with c-Myc shRNA): become insensitive | inhibition at 1 µM ([7]; c-Myc expressing (previously nonresponsive) cells, 1 uM SSI-4, read-out: enhanced growth inhibition): 33 to 45% | colony formation on soft agar [8]: blocked colony formation
